Test results taken from patent US20170355705A1 (GlaxoSmithKline Intellectual Property (No.2) Limited, priority 2014, published 2017).

Biological target: T1, SIRT1 (Homo sapiens, UniProt Q96EB6)
T1 sequence (Q96EB6 1-747): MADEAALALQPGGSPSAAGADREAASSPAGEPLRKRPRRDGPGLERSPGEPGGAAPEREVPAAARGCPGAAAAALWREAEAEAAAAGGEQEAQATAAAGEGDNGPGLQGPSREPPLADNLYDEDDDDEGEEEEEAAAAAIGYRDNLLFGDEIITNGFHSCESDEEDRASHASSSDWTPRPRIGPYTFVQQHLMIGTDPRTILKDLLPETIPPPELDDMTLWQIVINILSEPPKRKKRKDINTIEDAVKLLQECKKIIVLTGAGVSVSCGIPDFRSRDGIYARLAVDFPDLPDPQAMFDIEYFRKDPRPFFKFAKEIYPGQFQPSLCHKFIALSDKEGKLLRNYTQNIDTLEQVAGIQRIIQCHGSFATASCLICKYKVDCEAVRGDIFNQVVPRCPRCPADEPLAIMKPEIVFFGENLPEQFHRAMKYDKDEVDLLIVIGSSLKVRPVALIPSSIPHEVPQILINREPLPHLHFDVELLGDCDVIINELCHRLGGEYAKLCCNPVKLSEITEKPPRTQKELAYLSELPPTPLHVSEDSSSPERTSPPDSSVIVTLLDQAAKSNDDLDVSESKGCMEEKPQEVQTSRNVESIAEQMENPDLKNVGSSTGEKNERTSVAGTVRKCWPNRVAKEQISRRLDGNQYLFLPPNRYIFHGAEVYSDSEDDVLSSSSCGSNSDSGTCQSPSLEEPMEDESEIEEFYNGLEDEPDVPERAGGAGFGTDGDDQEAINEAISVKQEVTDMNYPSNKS
Test: Trp mass spectrometry assay of SIRT1 activity (EC1.5, percent maximum activation)
Assay type: biochemical
Conditions: Trp mass spectrometry assay; for TRP Activity (EC1.5): EC1.5 = concentration giving 150% activation of SIRT1
Method in brief: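 Mass spectrometry read-out (OAADPR formed, or deacetylated Trp peptide) after a 25 min NAD-dependent deacetylation by E. coli-expressed His-SIRT1, stopped with formic acid.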

[1] = percent maximum activation of SIRT1
[2] = 0.5 μM peptide substrate, 120 μM βNAD+, 10 nM SIRT1, 25 minutes at 25° C.

Structure (SMILES) | TRP Activity (EC1.5) | TRP MAX RESP (percent maximum fold activation) [1] | TRP MAX RESP (percent maximum fold activation) [2] | TRP Activity (EC1.5, concentration of test compound that results in 150% activation of SIRT1) [2]
Cc1cc(-c2ccc3c(n2)N(C(=O)Nc2cnccn2)C2CCN3C2)ccn1 (stereo in doubt) [Example 149, (4R)-7-(2-methylpyridin-4-yl)-N-(pyrazin-2-yl)-3,4-dihydro-1,4-methanopyrido[2,3-b][1,4]diazepine-5(2H)-carboxamide] | B (EC1.5 1-25 μM) | A (Fold activation ≧150%) | – | –
Cc1cc(-c2nc3c(cc2Cl)N2CC[C@@H](C2)N3C(=O)Nc2ccnc(OC3CCOCC3)n2)ccn1 [Example 21, (4S)-8-chloro-7-(2-methylpyridin-4-yl)-N-(2-((tetrahydro-2H-pyran-4-yl)oxy)pyrimidin-4-yl)-3,4-dihydro-1,4-methanopyrido[2,3-b][1,4]diazepine-5(2H)-carboxamide] | C (EC1.5>25 μM) | B (Fold Activation <150%) | – | –
O=C(Nc1cnc(OC[C@@H](O)CO)nc1)N1c2nc(-c3cccc(C(F)(F)F)c3)c(Cl)cc2N2CC[C@H]1C2 [Example 80, (4S)-8-chloro-N-(2-((S)-2,3-dihydroxypropoxy)pyrimidin-5-yl)-7-(3-(trifluoromethyl)phenyl)-3,4-dihydro-1,4-methanopyrido[2,3-b][1,4]diazepine-5(2H)-carboxamide] | A (EC1.5<1 μM) | A (Fold activation ≧150%) | – | –
CC(C)(CO)COc1cccc(NC(=O)N2c3nc(-c4cccc(C(F)(F)F)c4)c(Cl)cc3N3CC[C@H]2C3)n1 [Example 49, (4S)-8-chloro-N-(6-(3-hydroxy-2,2-dimethylpropoxy)pyridin-2-yl)-7-(3-(trifluoromethyl)phenyl)-3,4-dihydro-1,4-methanopyrido[2,3-b][1,4]diazepine-5(2H)-carboxamide] | B (EC1.5 1-25 μM) | A (Fold activation ≧150%) | – | –
CCOc1cc(-c2ccc3c(n2)N(C(=O)Nc2cnccn2)[C@H]2CCN3C2)ccn1 [Example 140, (4S)-7-(2-ethoxypyridin-4-yl)-N-(pyrazin-2-yl)-3,4-dihydro-1,4-methanopyrido[2,3-b][1,4]diazepine-5(2H)-carboxamide] | B (EC1.5 1-25 μM) | A (Fold activation ≧150%) | – | –
Cc1cc(-c2ccc3c(n2)N(C(=O)Nc2cc(-n4ccnn4)ccn2)[C@H]2CCN3C2)ccn1 [Example 341] | – | – | A (Fold activation ≧150%) | –
C[C@@H]1CN(c2ccc3c(n2)N(C(=O)Nc2cnccn2)[C@H]2CCN3C2)CCO1 [Example 124, (4S)-7-((R)-2-methylmorpholino)-N-(pyrazin-2-yl)-3,4-dihydro-1,4-methanopyrido[2,3-b][1,4]diazepine-5(2H)-carboxamide] | – | A (Fold activation ≧150%) | – | –
O=C(Nc1ccnc(OC[C@@H](O)CO)c1)N1c2nc(-c3cccc(C(F)(F)F)c3)c(Cl)cc2N2CC[C@H]1C2 [Example 61, (4S)-8-chloro-N-(2-((S)-2,3-dihydroxypropoxy)pyridin-4-yl)-7-(3-(trifluoromethyl)phenyl)-3,4-dihydro-1,4-methanopyrido[2,3-b][1,4]diazepine-5(2H)-carboxamide] | A (EC1.5<1 μM) | A (Fold activation ≧150%) | – | –
Cc1cc(-c2ccc3c(n2)N(C(=O)Nc2nccc(-c4cn(C)nc4C)n2)[C@H]2CCN3C2)ccn1 [Example 358, (4S)-N-(4-(1,3-dimethyl-1H-pyrazol-4-yl)pyrimidin-2-yl)-7-(2-methylpyridin-4-yl)-3,4-dihydro-1,4-methanopyrido[2,3-b][1,4]diazepine-5(2H)-carboxamide] | – | – | A (Fold activation ≧150%) | B (EC1.5 1-25 μM)
Cc1ncc(-c2ccnc(NC(=O)N3c4nc(-c5cccc(C(F)(F)F)c5)cc(C)c4N4CC[C@H]3C4)c2)o1 [Example 86, (4S)-9-methyl-N-(4-(2-methyloxazol-5-yl)pyridin-2-yl)-7-(3-(trifluoromethyl)phenyl)-3,4-dihydro-1,4-methanopyrido[2,3-b][1,4]diazepine-5(2H)-carboxamide] | A (EC1.5<1 μM) | A (Fold activation ≧150%) | – | –
Cc1cc(-c2ccc3c(n2)N(C(=O)Nc2cnccn2)[C@H]2CCN3C2)cnc1C [Example 171, (4S)-7-(5,6-dimethylpyridin-3-yl)-N-(pyrazin-2-yl)-3,4-dihydro-1,4-methanopyrido[2,3-b][1,4]diazepine-5(2H)-carboxamide] | A (EC1.5<1 μM) | A (Fold activation ≧150%) | – | –
O=C(Nc1ccnc(OCCO)n1)N1c2nc(-c3cccc(C(F)(F)F)c3)c(Cl)cc2N2CC[C@H]1C2 [Example 70, (4S)-8-chloro-N-(2-(2-hydroxyethoxy)pyrimidin-4-yl)-7-(3-(trifluoromethyl)phenyl)-3,4-dihydro-1,4-methanopyrido[2,3-b][1,4]diazepine-5(2H)-carboxamide] | A (EC1.5<1 μM) | A (Fold activation ≧150%) | – | –
Cc1cc(-c2ccc3c(n2)N(C(=O)Nc2ccc4[nH]ncc4c2)[C@H]2CCN3C2)ccn1 [Example 157, (4S)-N-(1H-indazol-5-yl)-7-(2-methylpyridin-4-yl)-3,4-dihydro-1,4-methanopyrido[2,3-b][1,4]diazepine-5(2H)-carboxamide] | A (EC1.5<1 μM) | A (Fold activation ≧150%) | – | –
CC1CCN(c2ccc3c(n2)N(C(=O)Nc2cnccn2)[C@H]2CCN3C2)CC1 [Example 198, (4S)-7-(4-methylpiperidin-1-yl)-N-(pyrazin-2-yl)-3,4-dihydro-1,4-methanopyrido[2,3-b][1,4]diazepine-5(2H)-carboxamide] | B (EC1.5 1-25 μM) | A (Fold activation ≧150%) | – | –
O=C(Nc1ccnc(OC[C@@H](O)CO)n1)N1c2nc(-c3cccc(C(F)(F)F)c3)ccc2N2CC[C@H]1C2 [Example 134, (4S)-N-(2-((S)-2,3-dihydroxypropoxy)pyrimidin-4-yl)-7-(3-(trifluoromethyl)phenyl)-3,4-dihydro-1,4-methanopyrido[2,3-b][1,4]diazepine-5(2H)-carboxamide] | A (EC1.5<1 μM) | A (Fold activation ≧150%) | – | –
Cc1cc(C)c(-c2ccc3c(n2)N(C(=O)Nc2cccnc2)[C@H]2CCN3C2)cn1 [Example 236, (4S)-7-(4,6-dimethylpyridin-3-yl)-N-(pyridin-3-yl)-3,4-dihydro-1,4-methano pyrido[2,3-b][1,4]diazepine-5(2H)-carboxamide] | – | – | A (Fold activation ≧150%) | B (EC1.5 1-25 μM)
Cl.O=C(Nc1ccnc(OC[C@H](O)CO)n1)N1c2nc(-c3cccc(C(F)(F)F)c3)c(Cl)cc2N2CC[C@H]1C2 [Example 51, (4S)-8-chloro-N-(2-((R)-2,3-dihydroxypropoxy)pyrimidin-4-yl)-7-(3-(trifluoromethyl)phenyl)-3,4-dihydro-1,4-methanopyrido[2,3-b][1,4]diazepine-5(2H)-carboxamide Hydrochloride] | A (EC1.5<1 μM) | A (Fold activation ≧150%) | – | –
O=C(Nc1cc(OC[C@@H](O)CO)ccn1)N1c2nc(-c3cccc(C(F)(F)F)c3)c(Cl)cc2N2CC[C@H]1C2 [Example 63, (4S)-8-chloro-N-(4-((S)-2,3-dihydroxypropoxy)pyridin-2-yl)-7-(3-(trifluoromethyl)phenyl)-3,4-dihydro-1,4-methanopyrido[2,3-b][1,4]diazepine-5(2H)-carboxamide] | B (EC1.5 1-25 μM) | A (Fold activation ≧150%) | – | –
Cc1cc(-c2ccc3c(n2)N(C(=O)N[C@@H](C)c2ccccn2)[C@H]2CCN3C2)ccn1 [Example 168, (4S)-7-(2-methylpyridin-4-yl)-N-((S)-1-(pyridin-2-yl)ethyl)-3,4-dihydro-1,4-methanopyrido[2,3-b][1,4]diazepine-5(2H)-carboxamide] | C (EC1.5>25 μM) | B (Fold Activation <150%) | – | –
Cc1cc(-c2ccc3c(n2)N(C(=O)Nc2nccc(C)n2)[C@H]2CCN3C2)ccn1 [Example 263] | – | – | A (Fold activation ≧150%) | –
